The term IC50 denotes the concentration needed to halve the response being measured. High values mean weaker potency in that assay, low ones greater potency in that assay.

One compound from paper PMC3551932, “STK295900, a Dual Inhibitor of Topoisomerase 1 and 2, Induces G2 Arrest in the Absence of DNA Damage” (PLoS ONE, 2013) can be followed below.

One test deals with hTERT RPE-1 cells. In words: Cell growth inhibition assay, hTERT RPE-1. Format: cell-based, human. The conditions noted are these: Homo sapiens, hTERT-RPE1, 96 h; Table 2 comparison; hTERT RPE-1, non-cancer; growth up to 4 days. From the text: (§1) Human epitheloid cervical carcinoma HeLa cells, human breast adenocarcinoma MCF7 and MDA-MB-231cells, human hepatocellular carcinoma HepG2 cells, human colon adenocarcinoma HT-29 cells, and human colorectal carcinoma HCT-116 cells were purchased from ATCC® and maintained in DMEM medium. Human prostate carcinoma PC-3 cells (purchased from ATCC®), human gastric carcinoma SNU-484 and SNU-601(obtained from Korean Cell Line Bank (KCLB)), human leukemia K-562 and HL-60 cells (purchased from ATCC®), immortalized human prostate epithelial 267B1cells, and immortalized human embryonic lung fibroblast MRC5CV1 cells were maintained in RPMI 1640 medium whereas immortalized retinal pigment epithelial hTERT RPE-1 cells (purchased from ATCC®) were maintained in DMEM/F12 medium. All cell lines were cultured in media supplemented with 10% fetal bovine serum, 100 U/ml penicillin, and […] streptomycin at 37°C in a 5% CO2 incubator.
(§2) Cells were seeded at the appropriate amount (1–2×10^3 cells) in triplicate in 96-well plates for 24 h and then treated with various concentrations of STK295900. Cell growth was determined by using EZ-CyTox cell viability assay kit (Daeil Lab. Service, Seoul, Korea). Ten microliters of WST solution were added to the treated cells at 24, 48, 72, and 96 h. Cells were further incubated at 37°C for 2 h and the absorbance was measured at 450 nm.

The test system of the next test is MDA-MB-231 cells. Description: Cell growth inhibition assay, MDA-MB-231. Type of test: cell-based. The settings on record: Homo sapiens, 96 h; Table 1; MDA-MB-231, breast adenocarcinoma; growth up to 4 days.
From the text: as §1, §2

The next test has as its system HepG2 cells. Description: Cell growth inhibition assay, HepG2. Format: cell-based, human. The settings on record: Homo sapiens, HepG2, 96 h, growth up to 4 days.
From the text: as §1, §2

A further test has as its system HeLa cells. Description: Mitotic index (Hoechst 33342 staining, mitotic cells counted). The settings on record: various concentrations, 24 h. Type of test: cell-based, human. The text has this:
Given its strong growth inhibitory effect on various cancer cell types, STK295900 was examined to determine its effect on cell cycle distribution using flow cytometry analysis. […] We then analyzed whether the increasing G2/M population in Fig. 2A is indeed G2 or M phase by determining the mitotic index and investigating the cell cycle regulatory proteins. To determine mitotic index, the treated cells were stained with Hoechst 33342 and then mitotic cells were counted. […] (A) Flow cytometric analysis for cell cycle distribution. HeLa cells were treated with the indicated concentrations of STK295900 for 24 h. Treated cells were then stained with propidium iodide (PI) and processed for cell cycle analysis. The bar graph represents the mean percentage of each cell cycle phase ± SD from three independent experiments. * = p<0.05 versus the respective G1, S, or G2/M phase of DMSO-treated cells. […] HeLa cells were treated with the indicated concentrations of STK295900 for 24 h. Cells were then stained with Hoechst 33342 and mitotic cells were counted. […] (C) Cell cycle related proteins expression.

As to `Nc1ccc(-c2nc3ccc(-c4ccc5nc(-c6ccc(N)cc6)[nH]c5c4)cc3[nH]2)cc1` [STK295900, 4,4′-(3H,3′H-5,5′-bibenzimidazole-2,2′-diyl)dianiline], the IC50 is 3430 nM in the test on hTERT RPE-1 cells; 510 nM in the test with MDA-MB-231 cells; 170 nM with HepG2 cells (Table 1, HepG2, hepatocellular carcinoma); 140 nM in the test with HepG2 cells (Table 2 comparison, HepG2). Also, the mitotic index result with HeLa cells was “no significant change in mitotic index”.
